Here are results for two compounds from patent US20180057565A1, “STABILIZED POLYPEPTIDE INSULIN RECEPTOR MODULATORS” (President and Fellows of Harvard College, priority 2012, published 2018).

pIC50, pKd: −log10 of the molar value. Bridge positions count the residues as written; N and C are the ends. Square brackets hold non-standard residues; d marks the D form. Peptide text beside a SMILES is read from it. R8 = C=CCCCCCC[C@@](C)(N)C(=O)O; S5 = C=CCCC[C@](C)(N)C(=O)O

Test [1] deals with T1, IRβ Tyr1150/1151 (Homo sapiens, UniProt P06213).
T1 construct: expressed in transfected cells; host or cells: CHO-IR (CHO cells stably expressing IR, from the Morris White lab)
The test can be described thus: Immunoblotting of IR auto-phosphorylation in CHO-IR cells. Format: cell-based. The note with it: 10 μM peptides in the presence of 50 nM insulin. As for the experimental part: To perform this type of direct assay, a CHO-IR cell line that stably expresses IR (provided by Morris White lab) was treated with SIRB peptides to detect auto-phosphorylation of IRβ Tyr1150/1151 (Cell signaling) by western blot.
CHO-IR cells were seeded in 24-well plates and grown in Ham's F-12, 10% FBS medium to >80% confluent (in ˜48 hours). The cells are starved in Ham's F-12 medium without FBS for two hours prior to experiment.
For agonistic studies, cells were incubated in fresh Ham's F-12 without FBS (negative control and baseline for normalization) or the same medium with 50 nM insulin (positive control and 100% activity for normalization). Experimental wells were incubated in the same medium containing various concentrations of peptide (typically 1 uM, 10 uM, and 100 uM). All cells were incubated at 37° C. for 15 min or 30 min.
For antagonistic studies, the experiment could be done with or without pre-treatment with peptides. In the case without, cells were incubated in fresh Ham's F-12 without FBS (negative control and baseline for normalization) or the same medium with 50 nM insulin (positive control and 100% activity for normalization).
Experimental wells were incubated in the same medium containing various concentrations of peptide (typically 1 uM, 10 uM, and 100 uM) AND 50 nM insulin. All cells were incubated at 37 C. for 15 min. […]

Test [2] deals with phosphor-Akt S473. The test can be described thus: Dose-response ELISA of phospho-Akt S473 in CHO-IR cell lysates. The class given is cell-based. As to conditions: 50 nM insulin. The method, then: FIG. 6 depicts the dose-response of antagonist SIRB-B5. CHO-IR cells were treated with 50 nM insulin and increasing concentrations of SIRB-B5. ELISA assays of phosphor-IR Y1150/1151 and phosphor-Akt S473 were performed with cell lysates.
For further verification of biological activity, the SIRB peptide library was screened again using IR auto-phosphorylation as an indicator. […] A possible explanation for the differential plateau values is that phosphorylation of Akt1 is controlled by many other pathways as well and thus difficult to abolish completely.

In test [3] the target is T2, L1-CR-L2 (Homo sapiens, UniProt P06213).
T2 construct: made in house; host or cells: HEK293 (stably transfected; protein used from expression medium)
The test can be described thus: Affinity pull-down of IR construct by biotinylated peptide on streptavidin beads. The note with it: 1% BSA in binding buffer, Western blot of His5 tag. The text has this: (§1) FIGS. 8A-8C depict the affinity pull-down of IR by SIRB-B5. 1% BSA added to binding buffer. FIG. 8A depicts the pull-down assay: Biotinylated SIRB-B5 could be immobilized on streptavidincoated beads and pull down IR from expression medium. Precipitated protein could be visualized by Western blot of His5 tag. FIG. 8B depicts L1-CR-L2 pulled down by SIRB-B5. FIG. 8C depicts mIR-Fn1-Ex10 pulled down by SIRB-B5 and competition by insulin.

The subject of test [4] is mIR-Fn1-Ex10. The test is described as above. The note with it: 1% BSA in binding buffer, competition by insulin.
Text: as §1

Test [5] has as its target T3, IGF-1R (Homo sapiens, UniProt P08069).
T3 construct: host or cells: HepG2
The test can be described thus: IGF-1R phosphorylation Western blot after immunoprecipitation, HepG2 cells with IGF1. Format: cell-based. As to conditions: in the presence of IGF1. The method, then: FIG. 11 depicts SIRB-B5 antagonism on IGF-1R. HepG2 cells were treated with SIRB-B5 in the presence of IGF1. IGF-1R was immunoprecipitated to be distinguished from IR on a Phospho-IR/IGF-1R Western blot.

Test [6] has as its system phosphorylation of Akt1 at Ser473. The test can be described thus: Phospho-Akt1 (Ser473) sandwich ELISA in HepG2 cells, antagonism and agonism screening. The class given is cell-based, human. As for the experimental part:
We note that although S371 has a high affinity to IR, it can barely induce downstream effects such as lipogenesis in rat adipocytes, which may reconcile with the result of no increase in downstream Akt phosphorylation. The effect of the peptides on insulin signaling was determined using a sandwich ELISA assay kit (Cell Signaling) designed to measure phosphorylation of Akt Ser473, a downstream target in the insulin signaling pathway. For each compound, cells were treated both in the presence and absence of insulin to reveal either antagonism or agonism, respectively, of insulin signaling.
Preparation: insulin stock solution at 50 μM (0.3 mg/ml or 30 mg/100 ml). To make stock: dissolved 10 mg in 1 ml 0.01 N HCl, heat at 37° C. to dissolve, then added to 32 ml, PBS, sterile filtered and stored at −20 C. Working stock would stay in good quality for 1 month at 4° C. […]
For the phospho-Akt1 ELISA assay, clarified lysate was first quantified using the standard BCA method, and all samples were adjusted to have the same total protein concentration. […]
The following day, wells were drained and washed four times with 1× Wash Buffer. […] Chemiluminescence was read under RLU mode in the […] SpectraMax Plate Reader at […] within 1-10 minutes of addition of substrate.

Test [7] addresses IR (Homo sapiens, UniProt P06213). As to conditions: read-out: affinity to the IR (kD); cited from earlier work.
For test [8], the system named is rat adipocytes. As to conditions: cited from earlier work.

T3 sequence (P08069 31-736 limits assumed): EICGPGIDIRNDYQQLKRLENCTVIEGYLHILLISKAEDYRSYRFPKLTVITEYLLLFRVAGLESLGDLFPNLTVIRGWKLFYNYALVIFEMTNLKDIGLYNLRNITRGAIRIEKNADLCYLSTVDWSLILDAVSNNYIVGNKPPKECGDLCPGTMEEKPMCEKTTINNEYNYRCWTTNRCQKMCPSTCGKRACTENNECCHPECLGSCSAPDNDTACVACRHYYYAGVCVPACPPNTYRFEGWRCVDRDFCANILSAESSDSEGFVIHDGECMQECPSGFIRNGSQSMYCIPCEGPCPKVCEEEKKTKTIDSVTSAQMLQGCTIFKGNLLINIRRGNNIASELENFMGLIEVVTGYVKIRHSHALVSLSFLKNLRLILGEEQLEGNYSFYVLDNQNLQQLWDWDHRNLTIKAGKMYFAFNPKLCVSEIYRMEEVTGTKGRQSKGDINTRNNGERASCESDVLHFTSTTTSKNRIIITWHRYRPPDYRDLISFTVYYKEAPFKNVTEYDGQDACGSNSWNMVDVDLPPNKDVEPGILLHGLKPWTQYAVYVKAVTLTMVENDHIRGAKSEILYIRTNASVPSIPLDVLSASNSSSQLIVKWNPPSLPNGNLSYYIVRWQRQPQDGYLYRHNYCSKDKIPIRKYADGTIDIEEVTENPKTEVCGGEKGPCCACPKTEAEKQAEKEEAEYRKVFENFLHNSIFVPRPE
T3 sequence (P08069 741-1367 partner limits assumed): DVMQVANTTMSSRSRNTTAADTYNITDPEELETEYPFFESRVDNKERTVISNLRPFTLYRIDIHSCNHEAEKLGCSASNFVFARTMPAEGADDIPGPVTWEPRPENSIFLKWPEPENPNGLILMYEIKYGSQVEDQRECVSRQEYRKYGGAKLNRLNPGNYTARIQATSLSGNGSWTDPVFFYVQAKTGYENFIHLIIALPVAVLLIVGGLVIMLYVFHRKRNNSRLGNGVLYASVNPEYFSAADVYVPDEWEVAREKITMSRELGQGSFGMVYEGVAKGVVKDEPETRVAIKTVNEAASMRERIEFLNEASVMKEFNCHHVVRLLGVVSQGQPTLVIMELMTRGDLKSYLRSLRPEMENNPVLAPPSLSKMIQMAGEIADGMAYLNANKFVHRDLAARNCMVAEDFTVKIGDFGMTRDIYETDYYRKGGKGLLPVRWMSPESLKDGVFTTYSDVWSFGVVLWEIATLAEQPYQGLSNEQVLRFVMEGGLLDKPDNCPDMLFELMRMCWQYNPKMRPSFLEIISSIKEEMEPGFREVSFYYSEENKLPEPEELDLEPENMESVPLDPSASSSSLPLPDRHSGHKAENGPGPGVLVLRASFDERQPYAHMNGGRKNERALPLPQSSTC

Consider `CC(C)C[C@H](NC(=O)[C@H](CCC(N)=O)NC(=O)[C@H](CCCNC(=N)N)NC(=O)[C@]1(C)CCCC=CCCCCCC[C@@](C)(NC(=O)[C@H](CC(=O)O)NC(=O)[C@H](CC(C)C)NC(=O)[C@H](CO)NC(=O)CN)C(=O)N[C@@H](CO)C(=O)N[C@@H](Cc2ccccc2)C(=O)N[C@@H](Cc2ccc(O)cc2)C(=O)N[C@@H](CC(=O)O)C(=O)N[C@@H](Cc2c[nH]c3ccccc23)C(=O)N[C@@H](Cc2ccccc2)C(=O)N1)C(=O)NCC(N)=O` [SIRB-B5] (H-GSLD[R8]SFYDWF[S5]RQLG-NH2; staple 5-12; C-terminus assumed), for which the “effect on insulin-induced auto-phosphorylation of IR (Phospho-IR western blot)” value in test [1] is recorded as “significant reduction”. In addition, in test [2] (CHO-IR cells, read-out: IC50, inhibition of insulin-induced phosphorylation of Akt), the pIC50 was 5.74. Moreover, the “Akt phosphorylation, % of control” value in test [2] (maximal dose of 100 μM peptide) is on record as 16%. The “pull-down of L1-CR-L2” value in test [3] is on record as “pulled down”. In test [4], the “pull-down of mIR-Fn1-Ex10” value was “pulled down”. The “antagonism on IGF-1R” value in test [5] is reported as “antagonism”.

As to “S371: previously reported insulin-mimetic site 1 peptide of 16 residues from phage display; lead for stapling (GSLDESFYDWFERQLG)”, the “reduction of the insulin-induced Akt-S473 phosphorylation signal” value in test [6] (10 μM peptide in the presence of 50 nM insulin) is given as 20%. For the same compound, in test [6] (absence of insulin), the “agonistic effect on Akt phosphorylation, peptide alone” value is reported as “no trace of any increase in phosphorylation”. In test [7], the pKd was 7.40. For the same compound, the induction of lipogenesis result in test [8] is reported as “barely induce”.
